Common to all, as to experiment: relative viability (nuclei count vs DMSO), 5 days (fraction); higher = more cells survive
Compound in the assay “Linsitinib + Lapatinib”: C[C@]1(O)C[C@@H](c2nc(-c3ccc4ccc(-c5ccccc5)nc4c3)c3c(N)nccn32)C1 [Linsitinib] + CS(=O)(=O)CCNCc1ccc(-c2ccc3ncnc(Nc4ccc(OCc5cccc(F)c5)c(Cl)c4)c3c2)o1 [Lapatinib] (partner 2 µM)
The procedure, abridged:
(§1)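 Lung cancer cell lines were seeded in 1536-well plates and dosed by pin tool the next day, with either a single drug or a fixed anchor-drug dose combined with five library-drug doses (not always all listed) spaced in √10 steps. Five days later, one step fixed the cells and stained their nuclei (final 0.05% Triton X-100, 1% formaldehyde, 1 ug/ml Hoechst), and nuclei were counted on 4× images. Relative viability is the nuclei count in treated wells divided by the count in vehicle wells, and each value is the median of duplicate plates.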

Compound in the assay “Linsitinib + Crizotinib”: C[C@]1(O)C[C@@H](c2nc(-c3ccc4ccc(-c5ccccc5)nc4c3)c3c(N)nccn32)C1 [Linsitinib] + C[C@@H](Oc1cc(-c2cnn(C3CCNCC3)c2)cnc1N)c1c(Cl)ccc(F)c1Cl [Crizotinib] (partner 1 µM)
The procedure, abridged: as §1

Compound in the assay “Linsitinib + Alpelisib”: C[C@]1(O)C[C@@H](c2nc(-c3ccc4ccc(-c5ccccc5)nc4c3)c3c(N)nccn32)C1 [Linsitinib] + Cc1nc(NC(=O)N2CCC[C@H]2C(N)=O)sc1-c1ccnc(C(C)(C)C(F)(F)F)c1 [Alpelisib] (partner 2 µM)
The procedure, abridged:
as §1

Compound in the assay “Linsitinib + Dasatinib”: C[C@]1(O)C[C@@H](c2nc(-c3ccc4ccc(-c5ccccc5)nc4c3)c3c(N)nccn32)C1 [Linsitinib] + Cc1nc(Nc2ncc(C(=O)Nc3c(C)cccc3Cl)s2)cc(N2CCN(CCO)CC2)n1 [Dasatinib] (partner 0.075 µM)
The procedure, abridged:
as §1

This note sets out measurements from the supplement of paper PMC10307832.

In the case of EMC-BAC-2, the relative viability worked out at 0.914 with Linsitinib + Lapatinib (first compound 0.01 µM); 0.893 with Linsitinib + Lapatinib (first compound 0.03162 µM); 0.806 in the assay with Linsitinib + Lapatinib (first compound 0.1 µM); 0.686 with Linsitinib + Lapatinib (first compound 0.3162 µM); 0.694 in the assay with Linsitinib + Lapatinib (first compound 1 µM); 0.8 with Linsitinib + Crizotinib (first compound 0.01 µM). In addition, the relative viability stood at 0.738 in the assay with Linsitinib + Crizotinib (first compound 0.03162 µM); 0.696 with Linsitinib + Crizotinib (first compound 0.1 µM); 0.517 with Linsitinib + Crizotinib (first compound 0.3162 µM); 0.688 with Linsitinib + Crizotinib (first compound 1 µM); 0.7 with Linsitinib + Alpelisib (first compound 0.01 µM); 0.689 with Linsitinib + Alpelisib (first compound 0.03162 µM). Moreover, the relative viability with Linsitinib + Alpelisib (first compound 0.1 µM) was 0.748; with Linsitinib + Alpelisib (first compound 0.3162 µM), 0.613; with Linsitinib + Alpelisib (first compound 1 µM), 0.667; with Linsitinib + Dasatinib (first compound 0.01 µM) it was 0.318; with Linsitinib + Dasatinib (first compound 0.03162 µM), 0.323; in the assay with Linsitinib + Dasatinib (first compound 0.1 µM), 0.289. Further, the relative viability with Linsitinib + Dasatinib (first compound 0.3162 µM) came to 0.445; with Linsitinib + Dasatinib (first compound 1 µM), 0.197.

Regarding NCI-H1355, the relative viability is 1.04 with Linsitinib + Lapatinib (first compound 0.01 µM); 0.983 with Linsitinib + Lapatinib (first compound 0.03162 µM); 0.865 with Linsitinib + Lapatinib (first compound 0.1 µM); 0.547 with Linsitinib + Lapatinib (first compound 0.3162 µM); 0.546 in the assay with Linsitinib + Lapatinib (first compound 1 µM); 0.974 with Linsitinib + Crizotinib (first compound 0.01 µM). In addition, the relative viability came out at 0.997 with Linsitinib + Crizotinib (first compound 0.03162 µM); 0.888 in the assay with Linsitinib + Crizotinib (first compound 0.1 µM); 0.79 with Linsitinib + Crizotinib (first compound 0.3162 µM); 0.664 with Linsitinib + Crizotinib (first compound 1 µM); 0.78 with Linsitinib + Alpelisib (first compound 0.01 µM); 0.718 with Linsitinib + Alpelisib (first compound 0.03162 µM). Besides, the relative viability with Linsitinib + Alpelisib (first compound 0.1 µM) was determined as 0.675; with Linsitinib + Alpelisib (first compound 0.3162 µM) it was 0.632; in the assay with Linsitinib + Alpelisib (first compound 1 µM) it was 0.549; with Linsitinib + Dasatinib (first compound 0.01 µM), 0.627; with Linsitinib + Dasatinib (first compound 0.03162 µM), 0.68; in the assay with Linsitinib + Dasatinib (first compound 0.1 µM), 0.518. In addition, the figures for the relative viability in the assay with Linsitinib + Dasatinib (first compound 0.3162 µM) and in the assay with Linsitinib + Dasatinib (first compound 1 µM) were 0.525 and 0.254, respectively.

In the case of NCI-H1792, the relative viability with Linsitinib + Lapatinib (first compound 0.01 µM) stood at 0.903; in the assay with Linsitinib + Lapatinib (first compound 0.03162 µM), 0.847; with Linsitinib + Lapatinib (first compound 0.1 µM), 0.706; with Linsitinib + Lapatinib (first compound 0.3162 µM) it was 0.667; with Linsitinib + Lapatinib (first compound 1 µM), 0.649; with Linsitinib + Crizotinib (first compound 0.01 µM), 1.01. Besides, the relative viability in the assay with Linsitinib + Crizotinib (first compound 0.03162 µM) was determined as 0.96; with Linsitinib + Crizotinib (first compound 0.1 µM) it was 0.951; in the assay with Linsitinib + Crizotinib (first compound 0.3162 µM), 0.764; with Linsitinib + Crizotinib (first compound 1 µM) it was 0.746; in the assay with Linsitinib + Alpelisib (first compound 0.01 µM), 0.803; in the assay with Linsitinib + Alpelisib (first compound 0.03162 µM), 0.751. In addition, the relative viability is 0.615 with Linsitinib + Alpelisib (first compound 0.1 µM); 0.606 with Linsitinib + Alpelisib (first compound 0.3162 µM); 0.538 with Linsitinib + Alpelisib (first compound 1 µM); 0.927 with Linsitinib + Dasatinib (first compound 0.03162 µM); 0.771 with Linsitinib + Dasatinib (first compound 0.1 µM); 0.529 with Linsitinib + Dasatinib (first compound 0.3162 µM). For the same cell line, the relative viability with Linsitinib + Dasatinib (first compound 1 µM) is 0.215.

For NCI-H1944, the relative viability is 0.787 in the assay with Linsitinib + Lapatinib (first compound 0.01 µM); 0.833 with Linsitinib + Lapatinib (first compound 0.03162 µM); 0.872 with Linsitinib + Lapatinib (first compound 0.1 µM); 0.527 in the assay with Linsitinib + Lapatinib (first compound 0.3162 µM); 0.46 in the assay with Linsitinib + Lapatinib (first compound 1 µM); 1.05 with Linsitinib + Crizotinib (first compound 0.01 µM). Further, the relative viability with Linsitinib + Crizotinib (first compound 0.03162 µM) was 1.21; in the assay with Linsitinib + Crizotinib (first compound 0.1 µM), 1.17; in the assay with Linsitinib + Crizotinib (first compound 0.3162 µM), 0.926; in the assay with Linsitinib + Crizotinib (first compound 1 µM), 0.892; with Linsitinib + Alpelisib (first compound 0.01 µM), 0.753; in the assay with Linsitinib + Alpelisib (first compound 0.03162 µM), 0.962. Moreover, the relative viability was determined as 0.865 in the assay with Linsitinib + Alpelisib (first compound 0.1 µM); 0.918 in the assay with Linsitinib + Alpelisib (first compound 0.3162 µM); 0.801 with Linsitinib + Alpelisib (first compound 1 µM); 0.224 in the assay with Linsitinib + Dasatinib (first compound 0.01 µM); 0.237 with Linsitinib + Dasatinib (first compound 0.03162 µM); 0.196 in the assay with Linsitinib + Dasatinib (first compound 0.1 µM). The relative viability came to 0.236 with Linsitinib + Dasatinib (first compound 0.3162 µM) and 0.162 in the assay with Linsitinib + Dasatinib (first compound 1 µM).

As to ABC-1, the relative viability with Linsitinib + Lapatinib (first compound 0.01 µM) came out at 1.13; with Linsitinib + Lapatinib (first compound 0.03162 µM), 1.5; in the assay with Linsitinib + Lapatinib (first compound 0.1 µM), 1.32; with Linsitinib + Lapatinib (first compound 0.3162 µM), 1.34; with Linsitinib + Lapatinib (first compound 1 µM), 1.21; in the assay with Linsitinib + Crizotinib (first compound 0.01 µM), 1.26. Further, the relative viability with Linsitinib + Crizotinib (first compound 0.03162 µM) stood at 1.01; with Linsitinib + Crizotinib (first compound 0.1 µM), 1.01; with Linsitinib + Crizotinib (first compound 0.3162 µM) it was 0.614; with Linsitinib + Crizotinib (first compound 1 µM), 0.905; in the assay with Linsitinib + Alpelisib (first compound 0.01 µM) it was 0.925; with Linsitinib + Alpelisib (first compound 0.03162 µM), 0.726. The relative viability in the assay with Linsitinib + Alpelisib (first compound 0.1 µM) is 0.912; with Linsitinib + Alpelisib (first compound 0.3162 µM), 0.76; with Linsitinib + Alpelisib (first compound 1 µM), 0.719; with Linsitinib + Dasatinib (first compound 0.01 µM), 0.574; in the assay with Linsitinib + Dasatinib (first compound 0.03162 µM), 0.469; with Linsitinib + Dasatinib (first compound 0.1 µM) it was 0.504. In addition, the figures for the relative viability in the assay with Linsitinib + Dasatinib (first compound 0.3162 µM) and with Linsitinib + Dasatinib (first compound 1 µM) were 0.541 and 0.448, respectively.

As to HOP-62, the relative viability stood at 1.06 in the assay with Linsitinib + Lapatinib (first compound 0.01 µM); 1.15 with Linsitinib + Lapatinib (first compound 0.03162 µM); 1.01 with Linsitinib + Lapatinib (first compound 0.1 µM); 0.631 with Linsitinib + Lapatinib (first compound 1 µM); 0.959 with Linsitinib + Crizotinib (first compound 0.01 µM); 1.02 in the assay with Linsitinib + Crizotinib (first compound 0.03162 µM). The relative viability with Linsitinib + Crizotinib (first compound 0.1 µM) is 0.798; with Linsitinib + Crizotinib (first compound 1 µM), 0.954; with Linsitinib + Alpelisib (first compound 0.01 µM) it was 0.862; with Linsitinib + Alpelisib (first compound 0.03162 µM), 1.09; with Linsitinib + Alpelisib (first compound 0.1 µM), 0.949; with Linsitinib + Alpelisib (first compound 1 µM) it was 0.933. The relative viability with Linsitinib + Dasatinib (first compound 0.01 µM) amounted to 0.65; in the assay with Linsitinib + Dasatinib (first compound 0.03162 µM), 0.692; in the assay with Linsitinib + Dasatinib (first compound 0.1 µM), 0.643; with Linsitinib + Dasatinib (first compound 1 µM), 0.565.

For NCI-H2009, the relative viability with Linsitinib + Lapatinib (first compound 0.01 µM) turned out to be 0.945; in the assay with Linsitinib + Lapatinib (first compound 0.03162 µM), 0.878; in the assay with Linsitinib + Lapatinib (first compound 0.1 µM), 0.997; with Linsitinib + Lapatinib (first compound 0.3162 µM), 0.148; with Linsitinib + Lapatinib (first compound 1 µM) it was 0.963; with Linsitinib + Crizotinib (first compound 0.01 µM), 0.988. Besides, the relative viability with Linsitinib + Crizotinib (first compound 0.03162 µM) was 1.04; in the assay with Linsitinib + Crizotinib (first compound 0.1 µM), 1.06; with Linsitinib + Crizotinib (first compound 0.3162 µM) it was 0.975; in the assay with Linsitinib + Crizotinib (first compound 1 µM), 1.04; with Linsitinib + Alpelisib (first compound 0.01 µM), 1.17; with Linsitinib + Alpelisib (first compound 0.03162 µM), 1.17. Also, the relative viability in the assay with Linsitinib + Alpelisib (first compound 0.1 µM) stood at 1.2; in the assay with Linsitinib + Alpelisib (first compound 0.3162 µM), 1.03; with Linsitinib + Alpelisib (first compound 1 µM), 1.13; with Linsitinib + Dasatinib (first compound 0.01 µM) it was 0.285; with Linsitinib + Dasatinib (first compound 0.03162 µM) it was 0.262; with Linsitinib + Dasatinib (first compound 0.1 µM) it was 0.274. Moreover, the relative viability with Linsitinib + Dasatinib (first compound 1 µM) was determined as 0.2.
